Laboratory results as given in patent publication US10323043B2, “Derivatives of macrocyclic N-aryl-tricyclopyrimidine-2-amine polyethers as inhibitors of FTL3 and JAK” (PIERRE FABRE MEDICAMENT, priority 2014, dated 2019).

What follows are molecules tested against T1, FLT3^D835Y (Homo sapiens, UniProt P36888, D835Y) (assay: LanthaScreen TR-FRET binding test, FLT3 D835Y). Details: FLT3^D835Y 15 nM, kinase tracer 236 3 nM, 25° C., 1 hour; read-out: Inhibition (IC50) of FLT3^D835Y enzyme.
T1 construct: purchased Merck Millipore 14-610
T1 sequence (P36888 27-993 D835Y): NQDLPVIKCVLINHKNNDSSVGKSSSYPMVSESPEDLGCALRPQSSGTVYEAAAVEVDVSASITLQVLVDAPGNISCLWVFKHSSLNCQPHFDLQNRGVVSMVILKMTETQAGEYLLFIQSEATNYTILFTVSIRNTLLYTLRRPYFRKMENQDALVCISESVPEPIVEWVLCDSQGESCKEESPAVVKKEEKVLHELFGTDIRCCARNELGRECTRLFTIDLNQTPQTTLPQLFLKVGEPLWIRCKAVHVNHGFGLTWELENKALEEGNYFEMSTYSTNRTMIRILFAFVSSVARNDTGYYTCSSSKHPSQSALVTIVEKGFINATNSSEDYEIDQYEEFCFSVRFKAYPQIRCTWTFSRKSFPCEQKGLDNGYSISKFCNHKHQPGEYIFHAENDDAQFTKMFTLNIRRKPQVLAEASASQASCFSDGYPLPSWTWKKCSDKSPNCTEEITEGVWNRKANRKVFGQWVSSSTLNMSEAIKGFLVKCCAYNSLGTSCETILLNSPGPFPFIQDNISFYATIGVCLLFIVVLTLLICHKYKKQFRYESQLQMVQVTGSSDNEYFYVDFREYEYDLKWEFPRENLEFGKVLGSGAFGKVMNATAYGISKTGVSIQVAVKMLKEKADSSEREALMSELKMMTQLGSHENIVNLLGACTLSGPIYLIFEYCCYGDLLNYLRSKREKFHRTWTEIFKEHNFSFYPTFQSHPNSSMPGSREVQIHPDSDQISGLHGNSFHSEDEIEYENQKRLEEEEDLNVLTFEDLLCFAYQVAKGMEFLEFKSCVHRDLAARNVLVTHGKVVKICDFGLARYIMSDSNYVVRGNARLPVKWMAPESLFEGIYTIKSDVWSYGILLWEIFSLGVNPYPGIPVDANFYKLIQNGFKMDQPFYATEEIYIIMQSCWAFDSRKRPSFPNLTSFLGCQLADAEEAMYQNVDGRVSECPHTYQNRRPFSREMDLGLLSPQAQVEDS
Protocol: FLT3 (#PV3182), JAK2 (#PV4210) and JAK3 (#PV3855) recombinant enzymes were purchased from Life Technologies. FLT3-ITD (#0778-0000-1) and FLT3^D835Y (#14-610) proteins were purchased from ProQinase and Merck Millipore, respectively. All the tests were carried out in 384-well plates. The principle of these binding tests is based on the LanthaScreen® TR-FRET methodology from Life Technologies.
The reaction mixture (15 μL total volume) contains the following compounds: 15 nM FLT3, FLT3-ITD or FLT3^D835Y, 3 nM kinase tracer 236 (Life Technologies, #PV5592) and 6 nM LanthaScreen® anti-GST antibody coupled to a europium chelate (Life Technologies, #PV5594) for FLT3-ITD and FLT3^D835Y or 6 nM LanthaScreen® anti-His antibody coupled to a europium chelate (Life Technologies, #PV5596) for FLT3.
The compounds are evaluated at 8 different concentrations prepared by making dilutions from a starting 10 mM stock solution in dimethylsulfoxide (DMSO) (Sigma, #D8418). The final DMSO concentration in the test is 1%. The reaction is carried out at 25° C. for 1 hour and detected on the EnVision® reader (Perkin Elmer) according to the recommendations of the supplier, Life Technologies.
The results are presented (Table 1) as the concentration values of the compound at which 50% of the kinase activity is inhibited, IC50 (μM), generated using the PRISM software (GraphPad).

IC50 | SMILES
1.1 nM | c1cc(N2CCC(N3CCCCC3)CC2)c2cc1Nc1ncc3c(n1)-c1cc(ccc1CC3)OCCOCCO2 [Compound 10]
1 nM | CN1CCN(c2ccc3cc2OCCOCCOc2ccc4c(c2)-c2nc(ncc2CC4)N3)CC1(C)C [Compound 40]
1.9 nM | c1cc(N2CC3CNCC3C2)c2cc1Nc1ncc3c(n1)-c1cc(ccc1CC3)OCCOCCO2 (stereo not shown) [Compound 29]
3.2 nM | c1cc(OCCN2CCCC2)c2cc1Nc1ncc3c(n1)-c1cc(ccc1CC3)OCCOCCO2 [Compound 14]
5.3 nM | OC1CCN(c2ccc3cc2OCCOCCOc2ccc4c(c2)-c2nc(ncc2CC4)N3)CC1 [Compound 19]
4.5 nM | CN1CC=C(c2ccc3cc2OCCOCCOc2ccc4c(c2)-c2nc(ncc2CC4)N3)CC1 [Compound 23]
0.66 nM | c1cc(N2CCNCC2)c2cc1Nc1ncc3c(n1)-c1cc(ccc1CC3)OCCOCCO2 [Compound 5]
7.2 nM | c1cc(N2CCC(N3CCOCC3)C2)c2cc1Nc1ncc3c(n1)-c1cc(ccc1CC3)OCCOCCO2 (stereo not shown) [Compound 7]
3 nM | CN1CCN(c2ccc3cc2OCCOCCOc2ccc4c(c2)-c2nc(ncc2CC4)N3)CC1 [Compound 3]
3.2 nM | CN(C)C1CCN(c2ccc3cc2OCCOCCOc2ccc4c(c2)-c2nc(ncc2CC4)N3)C1 (stereo not shown) [Compound 30]
